Test results from paper PMC9600963, “Cation ATPase (ATP4) Orthologue Replacement in the Malaria Parasite Plasmodium knowlesi Reveals Species-Specific Responses to ATP4-Targeting Drugs” (mBio, 2022).

Key:
Experiment in all cases: growth inhibition of orthologue replacement parasite line, SYBR green I (whole-cell read-out)
Type in all cases: cell-based
Details in all cases: intact P. knowlesi parasites in erythrocytes, 27 h (one life cycle); not a direct enzyme assay
[1] = target: T1, PkATP4 (PkATP4^OR line) (Plasmodium knowlesi, UniProt A0A384LKC1)
T1 construct: gene PKNH_1312000; untagged; intact parasites
T1 sequence (A0A384LKC1 1-1293): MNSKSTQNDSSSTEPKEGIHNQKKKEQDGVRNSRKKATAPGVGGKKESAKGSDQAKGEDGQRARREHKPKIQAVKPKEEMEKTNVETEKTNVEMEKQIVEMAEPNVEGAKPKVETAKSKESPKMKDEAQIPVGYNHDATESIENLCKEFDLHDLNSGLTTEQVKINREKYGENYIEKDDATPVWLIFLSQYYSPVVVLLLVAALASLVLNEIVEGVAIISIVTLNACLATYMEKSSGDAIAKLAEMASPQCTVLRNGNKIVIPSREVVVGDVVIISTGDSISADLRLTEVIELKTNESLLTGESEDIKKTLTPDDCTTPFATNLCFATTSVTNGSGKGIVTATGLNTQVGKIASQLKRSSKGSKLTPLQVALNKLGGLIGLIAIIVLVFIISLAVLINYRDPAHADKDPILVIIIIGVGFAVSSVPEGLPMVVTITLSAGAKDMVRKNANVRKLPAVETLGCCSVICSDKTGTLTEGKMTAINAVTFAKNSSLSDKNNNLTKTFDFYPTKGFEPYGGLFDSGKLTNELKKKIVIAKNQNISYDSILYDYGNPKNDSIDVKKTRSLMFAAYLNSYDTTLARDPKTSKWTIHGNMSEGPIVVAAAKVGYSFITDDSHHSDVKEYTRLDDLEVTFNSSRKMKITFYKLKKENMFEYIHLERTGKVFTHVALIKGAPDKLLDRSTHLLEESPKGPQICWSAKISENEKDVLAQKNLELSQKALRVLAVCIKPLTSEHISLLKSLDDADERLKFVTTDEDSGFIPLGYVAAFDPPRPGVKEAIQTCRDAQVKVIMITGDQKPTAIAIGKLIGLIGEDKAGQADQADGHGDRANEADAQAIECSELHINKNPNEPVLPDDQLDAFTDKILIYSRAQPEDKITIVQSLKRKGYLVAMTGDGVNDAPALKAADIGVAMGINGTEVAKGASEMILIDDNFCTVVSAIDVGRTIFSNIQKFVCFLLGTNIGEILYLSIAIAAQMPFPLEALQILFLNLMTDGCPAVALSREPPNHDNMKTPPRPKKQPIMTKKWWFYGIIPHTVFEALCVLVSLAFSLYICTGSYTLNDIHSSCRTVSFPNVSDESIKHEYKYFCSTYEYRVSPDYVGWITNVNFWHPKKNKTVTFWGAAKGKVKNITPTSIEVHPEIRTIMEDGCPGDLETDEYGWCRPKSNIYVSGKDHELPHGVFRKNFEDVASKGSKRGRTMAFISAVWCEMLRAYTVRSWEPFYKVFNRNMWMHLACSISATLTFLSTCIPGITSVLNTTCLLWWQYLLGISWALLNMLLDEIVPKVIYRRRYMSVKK
From the text: growth inhibition of orthologue replacement parasite line, SYBR green I (whole-cell read-out) on PkATP4 (PkATP4^OR line)

[2] = target: T2, PmATP4 (PmATP4^OR line) (Plasmodium malariae, UniProt A0A1A8WBD6)
T2 construct: gene ATP4; full-length recodonized coding region replacing pkatp4 in P. knowlesi A1-H.1; untagged; intact parasites
T2 sequence (A0A1A8WBD6 1-1380): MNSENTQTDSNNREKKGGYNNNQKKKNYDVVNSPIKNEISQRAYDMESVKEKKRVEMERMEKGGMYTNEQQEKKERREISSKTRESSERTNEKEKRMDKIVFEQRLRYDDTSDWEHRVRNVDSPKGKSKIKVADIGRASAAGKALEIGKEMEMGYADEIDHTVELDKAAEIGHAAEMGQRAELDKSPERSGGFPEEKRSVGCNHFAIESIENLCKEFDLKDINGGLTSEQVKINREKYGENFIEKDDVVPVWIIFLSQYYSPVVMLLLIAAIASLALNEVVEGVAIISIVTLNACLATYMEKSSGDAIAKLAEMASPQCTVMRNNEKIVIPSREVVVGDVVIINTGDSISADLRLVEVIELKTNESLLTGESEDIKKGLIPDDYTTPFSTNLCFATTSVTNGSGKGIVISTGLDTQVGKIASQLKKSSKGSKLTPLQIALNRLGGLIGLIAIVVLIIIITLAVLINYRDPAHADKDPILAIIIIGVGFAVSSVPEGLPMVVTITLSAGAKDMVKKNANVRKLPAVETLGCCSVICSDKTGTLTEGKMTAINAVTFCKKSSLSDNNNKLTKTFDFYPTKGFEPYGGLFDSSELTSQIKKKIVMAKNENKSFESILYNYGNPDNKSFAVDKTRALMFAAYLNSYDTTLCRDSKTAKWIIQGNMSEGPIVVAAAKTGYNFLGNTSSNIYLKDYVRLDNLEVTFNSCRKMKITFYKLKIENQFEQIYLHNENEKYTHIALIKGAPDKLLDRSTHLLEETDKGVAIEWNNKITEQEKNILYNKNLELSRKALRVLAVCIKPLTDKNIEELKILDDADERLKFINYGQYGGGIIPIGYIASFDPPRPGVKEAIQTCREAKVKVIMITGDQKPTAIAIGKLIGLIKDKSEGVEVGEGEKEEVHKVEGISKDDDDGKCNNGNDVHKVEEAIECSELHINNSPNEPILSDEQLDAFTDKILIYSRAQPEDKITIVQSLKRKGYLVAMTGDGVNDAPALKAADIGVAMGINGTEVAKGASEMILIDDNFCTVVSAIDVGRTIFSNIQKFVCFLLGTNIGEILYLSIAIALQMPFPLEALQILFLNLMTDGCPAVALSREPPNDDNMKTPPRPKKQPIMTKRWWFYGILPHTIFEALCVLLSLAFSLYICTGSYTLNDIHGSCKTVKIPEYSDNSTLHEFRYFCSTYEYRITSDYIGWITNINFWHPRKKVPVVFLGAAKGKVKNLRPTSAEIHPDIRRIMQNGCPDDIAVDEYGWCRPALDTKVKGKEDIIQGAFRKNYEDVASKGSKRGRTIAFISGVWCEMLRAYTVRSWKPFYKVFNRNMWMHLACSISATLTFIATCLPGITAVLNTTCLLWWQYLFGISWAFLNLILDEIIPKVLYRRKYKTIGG
From the text: growth inhibition of orthologue replacement parasite line, SYBR green I (whole-cell read-out) on PmATP4 (PmATP4^OR line)

[3] = target: T3, PvATP4 (PvATP4^OR line) (Plasmodium vivax, UniProt A5K0L8)
T3 construct: gene PVX_084625; full-length recodonized coding region replacing pkatp4 in P. knowlesi A1-H.1; untagged; intact parasites
From the text: growth inhibition of orthologue replacement parasite line, SYBR green I (whole-cell read-out) on PvATP4 (PvATP4^OR line)

[4] = target: T4, PocATP4 (PocATP4^OR line) (Plasmodium ovale, UniProt A0A1D3TM67)
T4 construct: gene ATP4; full-length recodonized coding region replacing pkatp4 in P. knowlesi A1-H.1; untagged; intact parasites
T4 sequence (A0A1D3TM67 1-1433): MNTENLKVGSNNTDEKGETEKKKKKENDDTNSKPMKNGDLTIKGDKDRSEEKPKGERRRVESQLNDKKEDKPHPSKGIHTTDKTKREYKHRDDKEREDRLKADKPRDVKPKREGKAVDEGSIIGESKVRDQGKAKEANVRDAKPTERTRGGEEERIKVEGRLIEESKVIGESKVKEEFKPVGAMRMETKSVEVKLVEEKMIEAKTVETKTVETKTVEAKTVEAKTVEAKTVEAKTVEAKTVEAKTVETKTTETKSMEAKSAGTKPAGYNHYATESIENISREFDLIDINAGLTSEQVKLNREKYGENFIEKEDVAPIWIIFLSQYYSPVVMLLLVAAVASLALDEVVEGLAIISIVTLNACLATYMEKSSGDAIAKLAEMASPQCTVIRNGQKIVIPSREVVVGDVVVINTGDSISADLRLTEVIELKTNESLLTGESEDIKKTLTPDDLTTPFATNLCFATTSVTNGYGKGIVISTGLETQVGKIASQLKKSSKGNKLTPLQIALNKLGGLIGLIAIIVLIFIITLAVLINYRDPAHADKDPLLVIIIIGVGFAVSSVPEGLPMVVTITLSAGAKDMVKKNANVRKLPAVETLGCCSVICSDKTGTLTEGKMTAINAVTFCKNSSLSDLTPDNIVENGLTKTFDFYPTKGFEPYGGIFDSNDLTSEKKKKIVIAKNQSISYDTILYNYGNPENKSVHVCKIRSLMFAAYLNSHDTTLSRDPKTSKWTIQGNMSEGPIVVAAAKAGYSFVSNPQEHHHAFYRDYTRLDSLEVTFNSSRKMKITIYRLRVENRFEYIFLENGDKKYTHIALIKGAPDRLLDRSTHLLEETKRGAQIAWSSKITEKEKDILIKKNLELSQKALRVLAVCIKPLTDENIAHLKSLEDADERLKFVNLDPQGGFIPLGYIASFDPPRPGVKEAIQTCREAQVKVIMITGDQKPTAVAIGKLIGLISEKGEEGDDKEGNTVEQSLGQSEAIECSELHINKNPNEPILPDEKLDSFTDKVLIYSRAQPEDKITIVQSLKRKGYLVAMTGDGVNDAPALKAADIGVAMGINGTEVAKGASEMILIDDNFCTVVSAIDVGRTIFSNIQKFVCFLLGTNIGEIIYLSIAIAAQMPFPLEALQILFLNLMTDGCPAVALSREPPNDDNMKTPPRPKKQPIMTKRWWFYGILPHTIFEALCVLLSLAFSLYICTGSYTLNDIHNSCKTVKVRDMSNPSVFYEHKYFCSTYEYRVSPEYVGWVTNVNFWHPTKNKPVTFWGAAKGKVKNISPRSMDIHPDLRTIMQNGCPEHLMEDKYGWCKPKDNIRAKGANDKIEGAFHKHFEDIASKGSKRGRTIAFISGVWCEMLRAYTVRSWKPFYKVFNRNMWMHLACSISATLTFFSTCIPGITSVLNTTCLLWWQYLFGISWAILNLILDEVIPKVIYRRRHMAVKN
From the text: growth inhibition of orthologue replacement parasite line, SYBR green I (whole-cell read-out) on PocATP4 (PocATP4^OR line)

[5] = target: T5, PfATP4 (PfATP4^OR line) (Plasmodium falciparum, UniProt A0A143ZZK9)
T5 construct: gene ATP4; full-length recodonized coding region replacing pkatp4 in P. knowlesi A1-H.1; untagged; intact parasites
T5 sequence (A0A143ZZK9 whole entry): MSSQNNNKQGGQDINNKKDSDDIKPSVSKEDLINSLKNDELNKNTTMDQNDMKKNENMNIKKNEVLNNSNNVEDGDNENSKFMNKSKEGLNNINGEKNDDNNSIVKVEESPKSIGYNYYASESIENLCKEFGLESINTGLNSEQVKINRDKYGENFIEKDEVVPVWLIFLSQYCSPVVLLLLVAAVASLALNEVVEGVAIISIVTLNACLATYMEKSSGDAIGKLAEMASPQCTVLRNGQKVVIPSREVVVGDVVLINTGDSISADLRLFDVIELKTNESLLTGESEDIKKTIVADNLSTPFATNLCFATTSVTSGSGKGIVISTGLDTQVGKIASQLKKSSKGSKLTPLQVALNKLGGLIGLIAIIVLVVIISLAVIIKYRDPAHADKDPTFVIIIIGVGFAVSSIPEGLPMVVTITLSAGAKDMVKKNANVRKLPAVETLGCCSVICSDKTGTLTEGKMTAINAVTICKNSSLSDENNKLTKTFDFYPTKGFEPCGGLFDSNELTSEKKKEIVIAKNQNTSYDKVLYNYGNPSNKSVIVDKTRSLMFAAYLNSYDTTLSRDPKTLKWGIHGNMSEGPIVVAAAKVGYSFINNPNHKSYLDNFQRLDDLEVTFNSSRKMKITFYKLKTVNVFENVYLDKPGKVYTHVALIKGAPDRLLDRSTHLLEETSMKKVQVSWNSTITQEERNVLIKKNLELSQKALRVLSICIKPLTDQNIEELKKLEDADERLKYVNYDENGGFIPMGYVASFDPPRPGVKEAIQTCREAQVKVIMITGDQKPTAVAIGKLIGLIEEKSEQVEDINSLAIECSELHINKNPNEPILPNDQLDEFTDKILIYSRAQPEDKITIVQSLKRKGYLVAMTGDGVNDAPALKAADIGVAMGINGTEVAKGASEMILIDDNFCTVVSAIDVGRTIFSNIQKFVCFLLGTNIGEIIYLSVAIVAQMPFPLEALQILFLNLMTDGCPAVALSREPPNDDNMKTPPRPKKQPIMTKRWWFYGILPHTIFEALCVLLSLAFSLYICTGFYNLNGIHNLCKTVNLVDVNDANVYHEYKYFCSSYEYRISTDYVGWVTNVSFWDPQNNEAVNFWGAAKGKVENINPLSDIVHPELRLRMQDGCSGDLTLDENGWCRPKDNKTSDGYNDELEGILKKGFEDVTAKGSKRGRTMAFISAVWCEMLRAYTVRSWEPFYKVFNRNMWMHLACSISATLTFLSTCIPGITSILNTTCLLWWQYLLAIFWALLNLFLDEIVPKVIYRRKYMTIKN
From the text: growth inhibition of orthologue replacement parasite line, SYBR green I (whole-cell read-out) on PfATP4 (PfATP4^OR line)

For PA21A092, the “EC50, nM (P value) / PA21A092” value [1] was 126 ± 5.5 nM, the “EC50, nM (P value) / PA21A092” value [2] was 92.8 ± 14.7 nM and the “EC50, nM (P value) / PA21A092” value [3] was 94.8 ± 14.6 nM. For the same substance, the “EC50, nM (P value) / PA21A092” value [4] was 599 ± 70 nM and the “EC50, nM (P value) / PA21A092” value [5] was 17.8 ± 2.9 nM.
